Patent publication US11466044B2 (WAYNE STATE UNIVERSITY, priority 2017, dated 2022)
In brackets after ≈: the same amount, converted by molar mass.

What was measured:
M. smegmatis SZ380 = assay: MIC by broth microdilution, M. smegmatis
MRSA = assay: MIC by broth microdilution, MRSA isolates; format: cell-based
N. gonorrhoeae = assay: Disk diffusion, N. gonorrhoeae; format: cell-based; details: 25 nmol
[1] = test system: A1555G mutant mitochondrial ribosome (human chimeric); assay: in-vitro translation assay, human chimeric ribosomes, A1555G mutant mitochondrial decoding site; format: biochemical; details: human mitochondrial decoding site with A1555G point mutation; read-out: IC50 Mitoch. A1555G
Excerpt: The antiribosomal activity of these compounds was investigated with cell-free translation assays using both wild type bacterial ribosomes and hybrid ribosomes carrying eukaryotic decoding A sites enabling the prediction of selectivity.

[2] = test system: E coli carrying specific resistance determinants; assay: MIC by broth microdilution, E coli carrying specific resistance determinants; format: cell-based

SMILES: NC[C@@H]1O[C@H](O[C@H]2[C@@H](O)[C@H](O[C@@H]3[C@@H](O)[C@H](N)C[C@H](N)[C@H]3O[C@H]3O[C@H](CN)[C@@H](O)[C@H](O)[C@H]3N)O[C@@H]2CO)[C@H](N)[C@@H](O)[C@@H]1O [neomycin, Neomycin B, reference compound]
- MIC M. smegmatis SZ380 WT (M. smegmatis SZ380; SZ380 WT, Table 5 (Example 3)): 0.5 mg/L (≈ 0.813 µM)
- MIC SZ380 M. smegmatis (M. smegmatis SZ380; strain SZ380 Mycobacterium smegmatis): 0.5 mg/L (≈ 0.813 µM)
- MIC AG038 MRSA (MRSA; clinical isolate AG038): 0.25 mg/L (≈ 0.407 µM)
- MIC MRSA AG038 (MRSA; clinical isolate AG038, Table 1 (Example 3)): 0.25 mg/L (≈ 0.407 µM)
- MIC AG039 MRSA AAC(6′)-I ANT(4′)-I (MRSA; clinical isolate AG039, AAC(6′)-I ANT(4′)-I): 128 mg/L (≈ 208 µM)
- MIC MRSA AG039 (MRSA; clinical isolate AG039, Table 1 (Example 3)): 128 mg/L (≈ 208 µM)
- MIC AG042 MRSA AAC(6′)-I ANT(4′)-I APH(2′) (MRSA; clinical isolate AG042, AAC(6′)-I ANT(4′)-I APH(2′)): 128 mg/L (≈ 208 µM)
- MIC MRSA AG042 (MRSA; clinical isolate AG042, Table 1 (Example 3)): 128 mg/L (≈ 208 µM)
- MIC MRSA AG044 (MRSA; clinical isolate AG044, Table 1 (Example 3)): 0.5 to 1 mg/L
- MIC50 MRSA AG38 (MRSA; strain AG38, Table 1 (Example 2)): 1 to 2 mg/L
- MIC50 MRSA AG39 (MRSA; strain AG39, Table 1 (Example 2)): 128 mg/L (≈ 208 µM)
- MIC50 MRSA AG42 (MRSA; strain AG42, Table 1 (Example 2)): 128 mg/L (≈ 208 µM)
- MIC50 MRSA AG44 (MRSA; strain AG44, Table 1 (Example 2)): 0.5 to 1 mg/L
- Disk diffusion 25 nmol N. gonorrhoeae (N. gonorrhoeae): <8 mm
- IC50 [1]: 0.4 µM
- MIC E. coli AAC(2′) AG106 ([2]; AAC(2′) AG106, Table 4 (Example 3)): 8 mg/L (≈ 13 µM)
- MIC E. coli AAC(2′) pH434 ([2]; AAC(2′) pH434, Table 4 (Example 3)): >64 μg/mL
- MIC AAC(6′) ([2]; AAC(6′), Table 3 (Example 2)): 4 mg/L (≈ 6.51 µM)
- MIC50 E coli AG07 AAC(3) ([2]; AG07 AAC(3), Table 2A (Example 2)): 4 mg/L (≈ 6.51 µM)
- MIC50 E coli AG09 AAC(6′) ([2]; AG09 AAC(6′), Table 2A (Example 2)): 8 mg/L (≈ 13 µM)
- MIC50 E coli AG036 ANT(4′,4″) ([2]; Table 2A (Example 2)): 32 mg/L (≈ 52.1 µM)
- MIC50 E coli AG036 ANT(4′,4″) ([2]; Table 2B (Example 2)): 4 to 8 mg/L
- MIC50 E coli AG037 APH(3′)-III ([2]; AG037 APH(3′)-III, Table 2B (Example 2)): >64 mg/L
- MIC50 E coli AG037 APH(3′,5″) ([2]; AG037 APH(3′,5″), Table 2A (Example 2)): >256 mg/L
- MIC50 E coli AG103 armA ([2]; AG103 ArmA, Table 2A (Example 2)): 0.5 mg/L (≈ 0.813 µM)
- MIC50 E coli AG103 armA ([2]; AG103 armA, Table 2B (Example 2)): 0.25 to 0.5 mg/L
- MIC50 E coli AG105 AAC(2′) ([2]; AG105 AAC(2′), Table 2A (Example 2)): 2 mg/L (≈ 3.25 µM)
- MIC E. coli AG106 AAC(2′)-Ia ([2]; AG106 AAC(2′)-Ia, Table 5 (Example 3)): 8 mg/L (≈ 13 µM)
- MIC E coli AG106 AAC(2′) ([2]; AG106 AAC(2′), Table 2 (Example 3)): 8 mg/L (≈ 13 µM)
- MIC ANT(4′) ([2]; ANT(4′), Table 3 (Example 2)): 4 to 8 mg/L
- MIC APH(3)-VI ([2]; APH(3)-VI, Table 3 (Example 1)): 32 to 64 mg/L
- MIC APH(3′)-I ([2]; APH(3′)-I, Table 3 (Example 1)): >64 mg/L
- MIC APH(3′)-II ([2]; Table 3 (Example 1)): 64 mg/L (≈ 104 µM)
- MIC APH(3′)-II ([2]; Table 3 (Example 2)): 64 mg/L (≈ 104 µM)
- MIC APH(3′)-III ([2]; APH(3′)-III, Table 3 (Example 1)): >64 mg/L
- MIC APH(3′)-VI ([2]; APH(3′)-VI, Table 3 (Example 2)): 32 to 64 mg/L
- MIC AG036 ANT(4′,4′′) ([2]; E. coli strain AG036, ANT(4′,4′′)): 4 to 8 mg/L
- MIC AG037 APH(3′)-III ([2]; E. coli strain AG037, APH(3′)-III): >64 mg/L
- MIC AG103 armA ([2]; E. coli strain AG103, armA): 0.25 to 0.5 mg/L
- MIC pH414 AAC(6′)-I ([2]; E. coli strain pH414, AAC(6′)-I): 2 μg/ml
- MIC pH415 AAC(6′)-II ([2]; E. coli strain pH415, AAC(6′)-II): 4 μg/ml
- MIC pH421 APH(3)-I ([2]; E. coli strain pH421, APH(3)-I): >128 μg/ml
- MIC pH422 APH(3′)-II ([2]; E. coli strain pH422, APH(3′)-II): 64 μg/ml
- MIC pH423 APH(3′)-VI ([2]; E. coli strain pH423, APH(3′)-VI): 32-64 μg/ml
- MIC pH432 ANT(4′) ([2]; E. coli strain pH432, ANT(4′)): 1 μg/ml
- MIC AG003 E. coli AAC(3)-II ([2]; clinical isolate AG003, AAC(3)-II): 1 mg/L (≈ 1.63 µM)
- MIC AG163 E. coli APH(3′)-I ([2]; clinical isolate AG163 APH(3′)-I, Table 2 (Example 4)): >64 mg/L
- MIC AG166 E. coli APH(3′)-II ([2]; clinical isolate AG166 APH(3′)-II, Table 2 (Example 4)): 64 mg/L (≈ 104 µM)
- MIC AG037 E. coli APH(3′)-III ([2]; engineered strain AG037 APH(3′)-III, Table 2 (Example 4)): >64 mg/L
- MIC pH421 E. coli APH(3′)-I ([2]; engineered strain pH421 APH(3′)-I, Table 2 (Example 4)): >128 μg/ml
- MIC pH422 E. coli APH(3′)-II ([2]; engineered strain pH422 APH(3′)-II, Table 2 (Example 4)): 64 μg/ml
- MIC pH423 E. coli APH(3′)-VI ([2]; engineered strain pH423 APH(3′)-VI, Table 2 (Example 4)): 32-64 μg/ml
- MIC E. coli pGB2armA armA ([2]; pGB2armA armA, Table 5 (Example 3)): 0.25-0.5 μg/ml
- MIC50 E coli pH414 AAC(6′)-I ([2]; pH414 AAC(6′)-I, Table 2B (Example 2)): 2 μg/ml
